Source: PMC12248599, “Exploring the Bioavailability of Red Grape Skin Extract Polyphenols: A Caco-2 Cell Model Study” (Foods, 2025)
Where “and” joins values, the source holds several entries; their conditions need not be identical. Identical values can stand only once. Marks after values point to notes of the source that are not given here.

How the values were obtained:
[1] = Caco-2 monolayer transport (bioavailability) study, AB and BA directions; assay type: in vitro ADME, Homo sapiens; conditions: human
Procedure: (§1) A reversed phase C18 column (Luna 5 μm C18(2) 100 Å, LC Column 250 × 4.6 mm, Phenomenex) was used to separate the polyphenols at a flow rate of 0.7 mL/min with an injection volume of 60 µL. The detection was carried out at 520 nm for anthocyanins (M3G, D3G and Pet3G), at 328 nm for CA, at 356 nm for flavonols (Q3G, K3Gal and K3G) and at 280 nm for GA and SA. The mobile phases were (A) acetonitrile 100% and (B) water 0.1% trifluoroacetic acid (v/v). The gradient was programmed as follows: 10% A 0 min, 10–80% A (0–20 min), 80–100% A (20–25 min), 100% A (25–30 min); 10% A (30–35 min) and 10% A (35–40 min). Every polyphenol was quantified using the corresponding reference standard calibration curve. Each of the quantified phenolic compound concentration was expressed as mg/mL
(§2) For the transport experiment Caco-2 cells were cultured at a density of 4 × 10^4 cells/cm^2 in Transwell inserts (12 mm i.d., 1.12 cm^2 growth area, 0.4 µm mean pore size polycarbonate membranes, Corning Inc., Milwaukee, WI, USA) placed in 12-well plates. Caco-2 cells were grown in DMEM in an incubator at 37 °C in a humidified atmosphere containing 5% CO2.
(§3) Bioavailability studies were performed in triplicate after 21 days of cell growth. Only inserts with stable TEER values higher than ≥300 Ω cm^2 were considered acceptable to perform the bioavailability study. For that purpose, DMEM media was removed, the monolayer was washed with PBS and HBSS was supplied to the cells.
(§4) Likewise, the GSE stock solution was diluted in HBSS medium to prepare GSE solutions S1 and S2. GSE solutions S1 and S2 had concentrations of 15 mg/mL and 22 mg/mL, respectively. These concentrations were established considering previous studies with grape pomace extracts that concluded that intestinal concentrations of 1–2% (w/v) show potential bioactivities and are safe to be used as a food ingredient.
(§5) The apical side represents the intestinal lumen and the basolateral side represents the bloodstream. Each sample (100 µL) was immediately acidified with 1M HCl to a final concentration of 0.007 M and subsequently frozen at −20 °C until analysis by HPLC (according to the method described in Section 2.5). Each experiment was carried out on 3 individual wells. The transport efficiency (TE) percentage was calculated according to Equation (2):Transport efficiency (%) = (C/C0) × 100(2) where, C is the polyphenol concentration at the acceptor side over time and C0 is the initial concentration at the donor side. TE values were calculated for the nine polyphenols identified in the grape skin extract.
(§6) The apparent permeability coefficient (Papp) of the polyphenols in GSE was calculated for apical to basolateral side (AB) and basolateral to apical side (BA) flux studies according to Equation (3):Papp (cm/s) = (dQ/dt) × (VR/AC0)(3) where, dQ/dt is the permeability rate which means the steady-state linear rate of change of concentration (mg/L) per second (s) at the acceptor side; A is the surface area of the cell monolayer (1.12 cm^2). C0 is the initial concentration at the donor side (mg/L) at t = 0 s and VR is the volume of the solution of the acceptor side (mL).
(§7) The efflux ratio (ER) of the polyphenol was assessed by calculating the Equation (4):ER = Papp (BA)/Papp (AB)(4) where, Papp (BA) is the apparent permeability coefficient of the polyphenol from basolateral to apical side and Papp (AB) is the apparent permeability coefficient from apical to basolateral side. ER is a measure of the relative contributions of active and passive transport to bi-direction flux across the cell monolayer.

Caco-2 cell monolayer = assay: as above; assay type: in vitro ADME, Homo sapiens; conditions: for reduction in concentration on the apical (donor) side / reduction in concentration on the basolateral (donor) side: 0 to 180 min; for TE (%) transport efficiency: after 180 min
Procedure: as §1, §2, §3, §4, §5, §6, §7

[2] = AB experiment, S1 (15 mg/mL GSE)
[3] = AB experiment, S2 (22 mg/mL GSE)
[4] = AB experiment, acceptor side, S1 (15 mg/mL GSE)
[5] = AB experiment, acceptor side, S2 (22 mg/mL GSE)
[6] = AB experiment, donor side, S1 (15 mg/mL GSE)
[7] = AB experiment, donor side, S2 (22 mg/mL GSE)
[8] = BA experiment, S1 (15 mg/mL GSE)
[9] = BA experiment, S2 (22 mg/mL GSE)
[10] = BA experiment, acceptor side, S1 (15 mg/mL GSE)
[11] = BA experiment, acceptor side, S2 (22 mg/mL GSE)
[12] = BA experiment, donor side, S1 (15 mg/mL GSE)
[13] = BA experiment, donor side, S2 (22 mg/mL GSE)

efflux ratio at 180 min, 15 mg/mL ([1]; Caco-2, Papp (BA)/Papp (AB), S1 (15 mg/mL GSE), read-out: ER (efflux ratio)): 1.3 | efflux ratio at 180 min, 22 mg/mL ([1]; Caco-2, Papp (BA)/Papp (AB), S2 (22 mg/mL GSE), read-out: ER (efflux ratio)): 1.4 | efflux ratio at 180 min ([1]; Caco-2, text statement, S1 and S2): > 1 | Papp A→B at 180 min, 15 mg/mL ([1]; Caco-2, apical to basolateral, S1 (15 mg/mL GSE)): 740 ± 30 nm/s | Papp A→B at 180 min, 22 mg/mL ([1]; Caco-2, apical to basolateral, S2 (22 mg/mL GSE)): 510 ± 20 nm/s | Papp B→A at 180 min, 15 mg/mL ([1]; Caco-2, basolateral to apical, S1 (15 mg/mL GSE)): 930 ± 70 nm/s | Papp B→A at 180 min, 22 mg/mL ([1]; Caco-2, basolateral to apical, S2 (22 mg/mL GSE)): 730 ± 80 nm/s | reduction in concentration on the apical (donor) side (Caco-2 cell monolayer; [2]): 59 ± 4% | TE (%) transport efficiency (Caco-2 cell monolayer; [2]): 7 ± 1% | reduction in concentration on the apical (donor) side (Caco-2 cell monolayer; [3]): 44.1 ± 0.7% | TE (%) transport efficiency (Caco-2 cell monolayer; [3]): 4.4 ± 0.5% and 4.4 ± 0.4% | Basolateral Side 75 min (Caco-2 cell monolayer; [4]): 0.06 ± 0.01 ^b mg/L | Basolateral Side 90 min (Caco-2 cell monolayer; [4]): 0.06 ± 0.01 ^b,c mg/L | Basolateral Side 115 min (Caco-2 cell monolayer; [4]): 0.06 ± 0.01 ^b,c mg/L | Basolateral Side 180 min (Caco-2 cell monolayer; [4]): 0.07 ± 0.01 ^c mg/L | Basolateral Side 75 min (Caco-2 cell monolayer; [5]): 0.07 ± 0.01 ^b mg/L | Basolateral Side 90 min (Caco-2 cell monolayer; [5]): 0.07 ± 0.01 ^b,c mg/L | Basolateral Side 115 min (Caco-2 cell monolayer; [5]): 0.08 ± 0.01 ^b mg/L | Basolateral Side 180 min (Caco-2 cell monolayer; [5]): 0.08 ± 0.01 ^b mg/L | Apical Side 0 min (Caco-2 cell monolayer; [6]): 1.04 ± 0.08 mg/L and 1.04 ± 0.08 ^a mg/L | Apical Side 75 min (Caco-2 cell monolayer; [6]): 0.84 ± 0.07 ^b mg/L | Apical Side 90 min (Caco-2 cell monolayer; [6]): 0.67 ± 0.07 ^c mg/L | Apical Side 115 min (Caco-2 cell monolayer; [6]): 0.54 ± 0.07 ^d mg/L | Apical Side 180 min (Caco-2 cell monolayer; [6]): 0.43 ± 0.07 mg/L and 0.43 ± 0.07 ^d mg/L | Apical Side 0 min (Caco-2 cell monolayer; [7]): 1.82 ± 0.03 mg/L and 1.82 ± 0.03 ^a mg/L | Apical Side 75 min (Caco-2 cell monolayer; [7]): 1.54 ± 0.03 ^b mg/L | Apical Side 90 min (Caco-2 cell monolayer; [7]): 1.37 ± 0.02 ^c mg/L | Apical Side 115 min (Caco-2 cell monolayer; [7]): 1.16 ± 0.02 ^d mg/L | Apical Side 180 min (Caco-2 cell monolayer; [7]): 1.01 ± 0.01 mg/L and 1.01 ± 0.01 ^c mg/L | detection at the acceptor side (Caco-2 cell monolayer; AB experiments, basolateral side): detected | reduction in concentration on the basolateral (donor) side (Caco-2 cell monolayer; [8]): 43.5 ± 0.4% | TE (%) transport efficiency (Caco-2 cell monolayer; [8]): 11.2 ± 0.8% | reduction in concentration on the basolateral (donor) side (Caco-2 cell monolayer; [9]): 22.6 ± 0.8% | TE (%) transport efficiency (Caco-2 cell monolayer; [9]): 8.7 ± 0.9% | Apical Side 75 min (Caco-2 cell monolayer; [10]): 0.08 ± 0.01 ^b mg/L | Apical Side 90 min (Caco-2 cell monolayer; [10]): 0.09 ± 0.01 ^c mg/L | Apical Side 115 min (Caco-2 cell monolayer; [10]): 0.10 ± 0.01 ^d mg/L | Apical Side 180 min (Caco-2 cell monolayer; [10]): 0.12 ± 0.01 ^c mg/L | Apical Side 75 min (Caco-2 cell monolayer; [11]): 0.08 ± 0.01 ^a,b mg/L | Apical Side 90 min (Caco-2 cell monolayer; [11]): 0.10 ± 0.01 ^a,b,c mg/L | Apical Side 115 min (Caco-2 cell monolayer; [11]): 0.11 ± 0.01 ^b,c mg/L | Apical Side 180 min (Caco-2 cell monolayer; [11]): 0.12 ± 0.01 ^c mg/L | Basolateral Side 0 min (Caco-2 cell monolayer; [12]): 1.04 ± 0.03 ^a mg/L | Basolateral Side 75 min (Caco-2 cell monolayer; [12]): 0.91 ± 0.02 ^b mg/L | Basolateral Side 90 min (Caco-2 cell monolayer; [12]): 0.80 ± 0.02 ^c mg/L | Basolateral Side 115 min (Caco-2 cell monolayer; [12]): 0.70 ± 0.02 ^c,d mg/L | Basolateral Side 180 min (Caco-2 cell monolayer; [12]): 0.59 ± 0.02 ^c mg/L | Basolateral Side 0 min (Caco-2 cell monolayer; [13]): 1.4 ± 0.1 ^a mg/L | Basolateral Side 75 min (Caco-2 cell monolayer; [13]): 1.3 ± 0.1 ^b mg/L | Basolateral Side 90 min (Caco-2 cell monolayer; [13]): 1.23 ± 0.09 ^c mg/L | Basolateral Side 115 min (Caco-2 cell monolayer; [13]): 1.15 ± 0.08 ^d mg/L | Basolateral Side 180 min (Caco-2 cell monolayer; [13]): 1.08 ± 0.08 ^c mg/L
SMILES: O=C(/C=C/c1ccc(O)c(O)c1)O[C@@H](C(=O)O)[C@@H](O)C(=O)O [CA, caftaric acid]
